| SMILES | melting point [°C] |
| --- | --- |
| O=C(O)CCCCCc1cncc2ccccc12 | 131 to 132 |
| C[C@@H]1CCC[C@H](C)N1CCNC(=O)CN1CCCC1=O | 93 to 94.5 |
| COc1cc2c(cc1OCCN(C)C)N(C(=O)c1ccc(-c3ccc(-c4noc(C)n4)cc3C)cc1)CCC2 | 139 to 141 |
| O=c1ccsn1Cc1ccc(Cl)cc1 | 88 to 90 |
| CCn1c(=O)c(C)cc2cnc(S(C)=O)nc21 (stereo not drawn) | 148 to 150 |
| C1CCN(CCN2CCNCC2)CC1 | 60 to 62 |
| C[C@H]1CCCC(C)(C)[C@@H]1[C@@H](O)c1ccc(Cl)c(F)c1 | 61.1 to 63.6 |
| CCCNC(=O)C(CC)Cc1ccc2c(c1)c(Cc1ccc(C(=O)O)cc1OC)cn2CCC (stereo not drawn) | 85 to 97 |
| Nc1ccc2ccc(OCc3ccc4ccccc4n3)cc2c1 | 164 to 166 |
| CC(C)(O)CCn1c2ccccc2c2cc(NC(=O)c3ccccc3C(F)(F)F)ccc21 | 188 to 189 |
| CC(=O)c1nc2ccc(C)cc2cc1O | 124 to 126 |
| Cc1c(C(=O)C(N)=O)c2c(OCC(=O)O)cc3c(c2n1Cc1ccccc1)CCC3 | 255 to 257 |
| O=C1NC(=O)[C@@]2(C[C@@H](C(=O)NCCO[N+](=O)[O-])Oc3ccc(F)cc32)N1 | 266 to 271 |
| CCOC(=O)CN1CCN(c2ccc(C#N)cc2)CC1=O | 108 |
| Cc1c(C)c(C)c2c(c1C)C=CC(C)(COc1ccc([N+](=O)[O-])cc1)O2 (stereo not drawn) | 142 to 145 |
| CCOc1ccc(CCNC(=O)C(F)(F)F)cc1S(=O)(=O)N=CN(C)C | 145 |
| C=CCNc1c(CO)cnc2cn[nH]c12 | 190 to 192 |
| CC(C)(C(=O)O)c1cccc(O[Si](C)(C)C(C)(C)C)c1 | 72 to 74 |
| Cn1ccc2c3c(C=O)c4ccccc4cc3ccc21 | 175 to 176 |
| Nc1c(F)c(N2CCCC2)c(F)c2c1c(=O)c(C(=O)O)cn2C1COC1 | 250 to 253 |
| CN1CCN(C(=O)Oc2ccccc2)C1=C(C(=O)Oc1ccccc1)[N+](=O)[O-] | 214 to 215 |
| CC(C)(C#N)c1cc(CO)cc(Cn2cncn2)c1 | 111 to 113 |
| CCn1ccnc1CC1COc2ccccc2O1 (stereo not drawn) | 77 to 78 |
| N#CCCNC(=O)c1cccc(-c2ccc3c(c2)N(c2ccc(Cl)cc2Cl)CCO3)c1 | 147 to 148 |

| SMILES | melting point [°C] |
| --- | --- |
| CN1C(=O)[C@H](NC(=O)C=Cc2ccc(Cl)cc2)N=C(c2ccccc2)c2ccccc21 | 203 to 205 |
| Cc1cccc(-c2nnn[nH]2)c1 | 150 to 152 |
| COc1ccccc1-c1cc(=O)cc(N2CCOCC2)o1 | 125 to 127 |
| Nc1nc2c(sc(=O)n2C2OC(COC(=O)c3ccccc3)C(OC(=O)c3ccccc3)C2OC(=O)c2ccccc2)c(=O)[nH]1 (stereo not drawn) | 248 to 250 |
| Cn1c(C#N)ccc1-c1ccc2c(c1)C(C)(c1cccs1)OCC(=O)N2 (stereo not drawn) | 197 to 198 |
| NC12CC=CCC1CCc1ccc(O)cc12 (stereo not drawn) | 156 to 161 |
| COc1ccc(-c2n[nH]c(-c3cccc(C(=O)O)c3)n2)cc1 | 287 to 289 |
| O=C1c2ccccc2C(=O)N1CC(=O)N1c2ccccc2N(Cc2ccccc2)C(=O)C(Cc2ccccc2)C1c1ccccc1 (stereo not drawn) | 255 to 256 |
| O=C(NN=Cc1ccc(C(F)(F)F)c([N+](=O)[O-])c1)c1ccc(O)cc1 | 280 |
| CC(=O)Nc1ccc(/C=C/C(=O)O)cn1 | 291 to 292 |
| CCCCc1nc(C(O)c2ccccc2)c(C(=O)O)n1Cc1ccc(-c2ccccc2C(=O)O)cc1 (stereo not drawn) | 192 to 194 |
| CC1CNCCN1c1c(F)c(N)c2c(=O)c(C(=O)O)cn(C3CC3)c2c1F (stereo not drawn) | 224 to 226 |
| CC(=O)NC[C@H]1CN(c2ccc(N3CC(C)(O[Si](C)(C)C(C)(C)C)C3)c(F)c2)C(=O)O1 | 137 to 138 |
| Nc1c(F)c(N2CCC(n3cncn3)C2)c(F)c2c1c(=O)c(C(=O)O)cn2C1CC1 (stereo not drawn) | 240 |
| O=C(Nc1ccc2c(c1)CCC2)c1ccccc1Cl | 144 to 145 |
| O=C(O)c1cc(Br)cc(C(=O)C=Cc2ccccc2)c1O | > 250 |
| COc1nc(C)cnc1N(C(=O)OCC(C)C)S(=O)(=O)c1cccnc1-c1ccc(C=O)cc1 | 154 to 156 |
| CC(C)(C)[Si](C)(C)OCCCn1ccc2c3c(c(-c4ccccc4Cl)cc21)C(=O)NC3=O | 158 to 160 |
| Cc1oc(-c2ccccc2)nc1COc1ccc2cc(CCCC3SC(=O)NC3=O)ccc2c1 (stereo not drawn) | 208 to 209 |
| O=C(O)c1cc2cc(OCCNC[C@@H](O)c3csc(C(F)(F)F)n3)ccc2o1 | 155 to 163 |
| CCOC(=O)c1cn(-c2ccc(OC)cc2)c2cc(F)c(F)cc2c1=O | 212 to 214 |
| Cc1ccc(NS(=O)(=O)c2ccc(N3CCNC3=O)cc2)cc1C | 206 to 208 |
| O=C1NC(=S)N/C1=C\c1c[nH]c2ncc(-c3ccccc3)cc12 | 265 to 270 |
| CCC(CC)Nc1c(NCc2ccc(Cl)cc2Cl)c(=O)c1=O | 210 to 211 |

Reference: a melting point compilation (Tetko et al.; mined from patent text by program, amines drawn as free bases though some values may be those of a salt)
